Reference: ChEMBL document CHEMBL5375999, “Discovery of a Dual Tubulin and Neuropilin-1 (NRP1) Inhibitor with Potent In Vivo Anti-Tumor Activity via Pharmacophore-based Docking Screening, Structure Optimization, and Biological Evaluation” (J Med Chem, 2023)
Calls of active or inactive are those of the source. No cut-off for these calls is given here.

Experiments:
PC-3 [1] = assay: Induction of apoptosis in human PC-3 cells assessed as necrotic cells at 2.5 uM by Annexin-V FITC staining based flow cytometry analysis (reference value: 0.059%); type: functional
PC-3 [2] = assay: Antiangiogenesis activity in human PC-3 cells assessed as reduction in network formation by interconnected cells at 0.1 to 12.5 uM incubated for 8 to 15 hrs by matrigel based inverted microscopic analysis; type: functional, cell-based; settings: dose 0.1-12.5 µM, time 8-15 hrs
PC-3 [3] = assay: Induction of cell cycle arrest in human PC-3 cells assessed as G0/G1 phase cells at 0.1 uM by flow cytometry analysis (reference value: 94.76%); type: functional
PC-3 [4] = assay: Inhibition of colony formation in human PC-3 cells incubated for 10 days by crystal violet staining based assay; type: functional, cell-based; settings: dose 0.1-12.5 µM, time 10.0 day
[5] = biological target: T1, Vascular endothelial growth factor receptor 2 (Homo sapiens, UniProt P35968); assay: Inhibition of VEGFR2 (unknown origin)
T1 sequence (P35968 whole entry): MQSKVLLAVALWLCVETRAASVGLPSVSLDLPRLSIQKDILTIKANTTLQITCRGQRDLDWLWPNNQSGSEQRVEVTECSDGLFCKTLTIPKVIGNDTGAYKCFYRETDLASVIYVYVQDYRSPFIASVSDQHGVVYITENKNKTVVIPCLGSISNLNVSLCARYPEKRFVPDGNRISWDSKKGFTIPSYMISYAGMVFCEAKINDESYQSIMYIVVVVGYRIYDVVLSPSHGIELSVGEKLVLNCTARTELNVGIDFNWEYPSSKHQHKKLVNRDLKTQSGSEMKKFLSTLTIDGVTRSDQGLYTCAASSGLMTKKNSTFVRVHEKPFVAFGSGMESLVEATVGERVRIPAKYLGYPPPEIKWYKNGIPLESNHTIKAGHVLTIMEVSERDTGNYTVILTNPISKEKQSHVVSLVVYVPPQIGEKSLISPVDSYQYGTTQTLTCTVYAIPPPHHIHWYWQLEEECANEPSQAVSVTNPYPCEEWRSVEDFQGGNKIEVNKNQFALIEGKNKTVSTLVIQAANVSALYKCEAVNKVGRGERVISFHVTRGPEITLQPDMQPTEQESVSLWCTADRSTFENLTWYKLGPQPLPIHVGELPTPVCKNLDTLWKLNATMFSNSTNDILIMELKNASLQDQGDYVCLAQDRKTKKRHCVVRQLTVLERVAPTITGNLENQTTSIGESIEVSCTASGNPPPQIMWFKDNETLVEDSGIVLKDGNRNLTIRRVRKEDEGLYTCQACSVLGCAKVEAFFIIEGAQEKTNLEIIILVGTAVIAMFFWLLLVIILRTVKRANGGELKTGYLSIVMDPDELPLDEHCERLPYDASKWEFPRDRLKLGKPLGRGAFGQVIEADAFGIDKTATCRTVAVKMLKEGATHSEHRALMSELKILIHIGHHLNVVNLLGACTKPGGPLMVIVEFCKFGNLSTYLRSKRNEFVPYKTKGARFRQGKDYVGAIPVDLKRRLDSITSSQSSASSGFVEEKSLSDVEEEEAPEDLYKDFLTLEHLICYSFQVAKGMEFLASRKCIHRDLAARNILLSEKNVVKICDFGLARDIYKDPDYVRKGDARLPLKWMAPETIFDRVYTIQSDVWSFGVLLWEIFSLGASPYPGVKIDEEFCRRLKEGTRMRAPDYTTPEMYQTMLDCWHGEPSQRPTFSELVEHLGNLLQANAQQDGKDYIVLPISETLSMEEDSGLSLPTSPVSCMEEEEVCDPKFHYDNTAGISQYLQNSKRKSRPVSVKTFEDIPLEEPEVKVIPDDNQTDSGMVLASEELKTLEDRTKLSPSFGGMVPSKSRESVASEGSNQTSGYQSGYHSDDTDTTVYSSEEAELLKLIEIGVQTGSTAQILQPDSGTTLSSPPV

[6] = biological target: RAC-alpha serine/threonine-protein kinase (Homo sapiens, UniProt P31749); assay: Inhibition of AKT1 (unknown origin)
Sequence of RAC-alpha serine/threonine-protein kinase (P31749 whole entry): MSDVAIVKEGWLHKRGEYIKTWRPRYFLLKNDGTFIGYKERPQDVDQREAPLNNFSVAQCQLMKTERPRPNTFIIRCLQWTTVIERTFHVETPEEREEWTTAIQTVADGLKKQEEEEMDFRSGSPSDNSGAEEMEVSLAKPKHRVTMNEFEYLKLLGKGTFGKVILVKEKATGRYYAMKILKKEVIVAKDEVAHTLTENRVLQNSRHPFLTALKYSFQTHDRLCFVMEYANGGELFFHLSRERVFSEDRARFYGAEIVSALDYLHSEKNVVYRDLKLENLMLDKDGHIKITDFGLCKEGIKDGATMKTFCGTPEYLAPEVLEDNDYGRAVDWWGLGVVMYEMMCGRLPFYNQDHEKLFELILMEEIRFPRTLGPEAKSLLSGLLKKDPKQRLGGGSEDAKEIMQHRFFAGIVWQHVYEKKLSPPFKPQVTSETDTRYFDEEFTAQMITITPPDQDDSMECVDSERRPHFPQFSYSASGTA

VCaP = assay: Cytotoxicity against human VCaP cells assessed as inhibition of cell viability incubated for 48 hrs by MTT assay; type: functional, cell-based
Tubulin (Homo sapiens) [7] = biological target: T2, Tubulin (Homo sapiens) (UniProt P68371+Q9H4B7+P0DPH7+P68366+Q13509+Q71U36+P04350+Q3ZCM7+P07437+P68363+Q9BQE3+Q6PEY2+Q13885+Q9BVA1+Q9BUF5); assay: Inhibition of tubulin polymerization in human PC-3 cells assessed as appearance of blurred nucleus at 2.5 to 12.5 uM incubated for 48 hrs by immunofluorescence assay; type: cell-based; settings: dose 2.5-12.5 µM
PC-3 [8] = assay: Induction of cell cycle arrest in human PC-3 cells assessed as S phase cells at 0.1 uM by flow cytometry analysis (reference value: 2%); type: functional
PC-3 [9] = assay: Induction of cell cycle arrest in human PC-3 cells assessed as accumulation of cells at G2/M phase at 0.5 uM by flow cytometry analysis (reference value: 3.24%); type: functional
Activin receptor type-1 = Activin receptor type-1 (Homo sapiens, UniProt Q04771); assay: Inhibition of ACVR1 (unknown origin)
Sequence of Activin receptor type-1 (Q04771 whole entry): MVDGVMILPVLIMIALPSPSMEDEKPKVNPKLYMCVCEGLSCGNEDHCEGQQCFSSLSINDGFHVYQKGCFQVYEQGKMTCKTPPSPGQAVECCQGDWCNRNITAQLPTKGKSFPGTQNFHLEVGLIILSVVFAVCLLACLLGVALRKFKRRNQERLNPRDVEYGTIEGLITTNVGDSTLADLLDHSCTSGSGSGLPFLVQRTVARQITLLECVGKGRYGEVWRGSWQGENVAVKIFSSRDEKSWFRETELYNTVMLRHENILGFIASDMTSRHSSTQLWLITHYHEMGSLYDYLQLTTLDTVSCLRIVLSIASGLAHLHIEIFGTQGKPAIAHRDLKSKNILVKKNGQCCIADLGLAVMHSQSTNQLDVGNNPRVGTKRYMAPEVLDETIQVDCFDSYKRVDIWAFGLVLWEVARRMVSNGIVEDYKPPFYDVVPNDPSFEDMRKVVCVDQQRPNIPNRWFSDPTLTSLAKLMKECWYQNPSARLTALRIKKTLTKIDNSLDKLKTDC

[10] = biological target: Serine/threonine-protein kinase PLK1 (Homo sapiens, UniProt P53350); assay: Inhibition of PLK1 (unknown origin)
Sequence of Serine/threonine-protein kinase PLK1 (P53350 whole entry): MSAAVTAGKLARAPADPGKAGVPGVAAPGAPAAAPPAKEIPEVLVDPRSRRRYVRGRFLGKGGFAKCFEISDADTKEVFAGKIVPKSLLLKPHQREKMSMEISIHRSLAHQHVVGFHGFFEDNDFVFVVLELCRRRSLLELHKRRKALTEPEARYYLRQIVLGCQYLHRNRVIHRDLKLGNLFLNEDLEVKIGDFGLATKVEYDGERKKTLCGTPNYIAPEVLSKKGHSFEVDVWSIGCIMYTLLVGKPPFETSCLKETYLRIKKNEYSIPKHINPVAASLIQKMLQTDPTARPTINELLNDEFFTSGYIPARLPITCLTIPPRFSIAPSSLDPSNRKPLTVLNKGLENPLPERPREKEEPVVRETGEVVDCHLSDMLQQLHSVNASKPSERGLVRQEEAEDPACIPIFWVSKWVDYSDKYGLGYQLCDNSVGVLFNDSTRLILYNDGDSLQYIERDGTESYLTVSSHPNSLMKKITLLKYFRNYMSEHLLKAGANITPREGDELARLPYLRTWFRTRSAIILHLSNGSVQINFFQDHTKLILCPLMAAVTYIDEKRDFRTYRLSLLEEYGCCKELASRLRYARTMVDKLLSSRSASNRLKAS

[11] = biological target: T1, Vascular endothelial growth factor receptor 2; assay: Inhibition of VEGF-induced VEGFR2 signal pathway in HUVECs assessed as reduction in p-VEGFR2 level at 12.5 uM relative to control; type: cell-based; settings: HUVEC
Tubulin (Homo sapiens) [12] = biological target: T2, Tubulin (Homo sapiens); assay: Inhibition of tubulin polymerization (unknown origin) at 12 uM by spectrophotometric analysis relative to control; type: protein-complex assay
Tubulin (Homo sapiens) [13] = biological target: T2, Tubulin (Homo sapiens); assay: Inhibition of tubulin polymerization in human PC-3 cells assessed as microtubule destruction at 2.5 to 12.5 uM incubated for 48 hrs by immunofluorescence assay; type: cell-based; settings: dose 2.5-12.5 µM
[14] = biological target: Atypical kinase COQ8B, mitochondrial (Homo sapiens, UniProt Q96D53); assay: Inhibition of ADCK4 (unknown origin)
Focal adhesion kinase 1 = Focal adhesion kinase 1 (Homo sapiens, UniProt Q05397); assay: Inhibition of FAK (unknown origin)
[15] = Toxicity in BALB/c mouse xenografted with human PC-3 cells assessed as change in liver morphology at 5 to 10 mg/kg, ip administered every 4 days for 20 days by H and E staining based inverted microscopic assay; type: organism-based; settings: in vivo, 480 h, dose 5-10 mg/kg, time 20 day
[16] = biological target: Vascular endothelial growth factor receptor 3 (Homo sapiens, UniProt P35916); assay: Inhibition of VEGFR3 (unknown origin)
Sequence of Vascular endothelial growth factor receptor 3 (P35916 whole entry): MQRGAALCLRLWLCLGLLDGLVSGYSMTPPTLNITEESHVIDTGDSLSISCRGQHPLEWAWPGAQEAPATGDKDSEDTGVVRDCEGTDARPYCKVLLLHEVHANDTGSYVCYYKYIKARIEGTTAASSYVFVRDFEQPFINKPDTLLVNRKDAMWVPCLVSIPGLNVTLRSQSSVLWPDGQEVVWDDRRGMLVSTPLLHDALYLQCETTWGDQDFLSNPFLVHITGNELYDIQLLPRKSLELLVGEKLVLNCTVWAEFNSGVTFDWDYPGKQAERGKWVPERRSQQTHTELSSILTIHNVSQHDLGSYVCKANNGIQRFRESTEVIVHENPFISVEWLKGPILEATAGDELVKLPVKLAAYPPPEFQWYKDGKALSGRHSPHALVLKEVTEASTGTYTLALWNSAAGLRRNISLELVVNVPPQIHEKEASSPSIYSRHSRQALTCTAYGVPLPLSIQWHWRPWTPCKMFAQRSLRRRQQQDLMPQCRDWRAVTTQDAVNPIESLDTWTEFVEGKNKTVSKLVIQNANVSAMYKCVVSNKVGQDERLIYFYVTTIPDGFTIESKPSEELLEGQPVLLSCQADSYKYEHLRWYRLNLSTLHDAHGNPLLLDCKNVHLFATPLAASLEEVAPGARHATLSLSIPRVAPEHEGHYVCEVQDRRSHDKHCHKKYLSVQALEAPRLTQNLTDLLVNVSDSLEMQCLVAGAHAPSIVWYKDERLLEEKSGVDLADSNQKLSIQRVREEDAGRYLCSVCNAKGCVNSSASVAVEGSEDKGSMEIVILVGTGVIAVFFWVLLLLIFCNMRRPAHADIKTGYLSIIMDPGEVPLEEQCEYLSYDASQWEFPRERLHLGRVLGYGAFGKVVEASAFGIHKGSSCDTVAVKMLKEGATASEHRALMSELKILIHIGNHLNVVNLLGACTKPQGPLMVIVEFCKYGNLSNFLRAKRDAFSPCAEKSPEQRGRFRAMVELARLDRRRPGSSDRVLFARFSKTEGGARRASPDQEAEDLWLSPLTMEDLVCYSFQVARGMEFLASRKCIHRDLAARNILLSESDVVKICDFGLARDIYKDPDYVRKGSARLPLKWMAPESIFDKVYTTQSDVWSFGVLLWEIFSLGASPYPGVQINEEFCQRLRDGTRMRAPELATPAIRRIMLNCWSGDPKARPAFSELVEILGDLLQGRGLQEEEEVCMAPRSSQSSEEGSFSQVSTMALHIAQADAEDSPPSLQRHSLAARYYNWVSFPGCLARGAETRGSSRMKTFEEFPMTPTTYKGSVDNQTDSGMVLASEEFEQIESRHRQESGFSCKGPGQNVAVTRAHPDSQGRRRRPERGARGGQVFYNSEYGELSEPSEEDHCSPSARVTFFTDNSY

[17] = biological target: Cyclin-dependent kinase 3 (Homo sapiens, UniProt Q00526); assay: Inhibition of CDK3 (unknown origin)
Sequence of Cyclin-dependent kinase 3 (Q00526 whole entry): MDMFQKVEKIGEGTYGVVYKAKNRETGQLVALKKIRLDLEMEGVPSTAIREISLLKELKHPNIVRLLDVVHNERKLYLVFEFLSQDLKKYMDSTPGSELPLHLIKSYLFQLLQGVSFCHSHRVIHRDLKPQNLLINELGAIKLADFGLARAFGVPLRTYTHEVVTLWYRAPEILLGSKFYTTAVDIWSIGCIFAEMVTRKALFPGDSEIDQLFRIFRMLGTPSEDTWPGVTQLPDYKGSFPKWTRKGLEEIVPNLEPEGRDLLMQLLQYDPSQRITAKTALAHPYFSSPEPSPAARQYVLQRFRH

Activin receptor type-2A = Activin receptor type-2A (Homo sapiens, UniProt P27037); assay: Inhibition of ACVR2 (unknown origin)
[18] = Half life in Sprague-Dawley rat at 1.5 mg/kg, po measured upto 24 hrs by LC-MS/MS analysis; type: ADME, organism-based; settings: in vivo
PC-3 [19] = assay: Antitumor activity against human PC-3 cells xenografted in BALB/c nude mouse assessed as tumor disappearance at 10 mg/kg, ip administered every 4 days for 20 days; type: functional, organism-based; settings: time 20.0 day
[20] = biological target: Tyrosine-protein kinase Fgr (Homo sapiens, UniProt P09769); assay: Inhibition of FGR (unknown origin)
CWR22R = assay: Cytotoxicity against human 22Rv1 cells assessed as inhibition of cell viability incubated for 48 hrs by MTT assay; type: functional, cell-based
[21] = biological target: Atypical kinase COQ8A, mitochondrial (Homo sapiens, UniProt Q8NI60); assay: Inhibition of ADCK3 (unknown origin)
[22] = biological target: Cyclin-dependent kinase 9 (Homo sapiens, UniProt P50750); assay: Inhibition of CDK9 (unknown origin)
Sequence of Cyclin-dependent kinase 9 (P50750 whole entry): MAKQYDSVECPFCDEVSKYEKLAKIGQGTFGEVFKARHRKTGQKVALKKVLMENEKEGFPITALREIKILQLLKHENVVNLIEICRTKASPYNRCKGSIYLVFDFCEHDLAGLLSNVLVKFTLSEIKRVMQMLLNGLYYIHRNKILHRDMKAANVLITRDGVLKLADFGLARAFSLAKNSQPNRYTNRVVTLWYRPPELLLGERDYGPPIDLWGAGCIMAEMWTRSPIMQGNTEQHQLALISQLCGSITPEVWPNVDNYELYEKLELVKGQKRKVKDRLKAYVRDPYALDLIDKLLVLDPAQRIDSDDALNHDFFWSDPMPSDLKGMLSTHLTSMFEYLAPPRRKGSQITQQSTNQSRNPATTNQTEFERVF

[23] = biological target: Neuropilin-1 (Homo sapiens) (UniProt O14786); assay: Inhibition of [125I]-VEGF-A165 binding to NRP1 (unknown origin) transfected in HUVECs at 12 uM incubated for 2 hrs by plate reader analysis relative to control; type: cell-based; settings: HUVEC
[24] = biological target: STE20-like serine/threonine-protein kinase (Homo sapiens, UniProt Q9H2G2); assay: Inhibition of SLK (unknown origin)
PC-3 [25] = assay: Induction of cell cycle arrest in human PC-3 cells assessed as decrease in cyclin-B1 expression at 0.5 to 12.5 uM incubated for 48 hrs by Western blotting analysis; type: functional, cell-based; settings: dose 0.5-12.5 µM
[26] = biological target: Cyclin-G-associated kinase (Homo sapiens, UniProt O14976); assay: Inhibition of GAK (unknown origin)
[27] = Toxicity in BALB/c mouse xenografted with human PC-3 cells assessed as change in kidney morphology at 5 to 10 mg/kg, ip administered every 4 days for 20 days by H and E staining based inverted microscopic assay; type: organism-based; settings: in vivo, 480 h, dose 5-10 mg/kg, time 20 day
Tubulin (Homo sapiens) [28] = biological target: T2, Tubulin (Homo sapiens); assay: Inhibition of tubulin polymerization in human PC-3 cells assessed as cell shrinkage at 0.1 to 12.5 uM incubated for 48 hrs by immunofluorescence assay; type: cell-based; settings: dose 0.1-12.5 µM
[29] = biological target: Phosphatidylinositol 4,5-bisphosphate 3-kinase catalytic subunit alpha isoform (Homo sapiens, UniProt P42336); assay: Inhibition of PIK3CA (unknown origin)
PC-3 [30] = assay: Induction of cell cycle arrest in human PC-3 cells assessed as accumulation of cells at G2/M phase at 12.5 uM by flow cytometry analysis (reference value: 3.24%); type: functional
[31] = Cmax in Sprague-Dawley rat at 1.5 mg/kg, po measured upto 24 hrs by LC-MS/MS analysis; type: ADME, organism-based; design: time < 24 hrs, dose 1.5 mg/kg, route po; settings: in vivo
PC-3 [32] = assay: Induction of apoptosis in human PC-3 cells assessed as necrotic cells at 0.1 uM by Annexin-V FITC staining based flow cytometry analysis (reference value: 0.059%); type: functional

IC50 [5]: > 10 µM
IC50 [6]: > 10 µM
inhibition (Tubulin (Homo sapiens) [7]): Active
IC50 (Activin receptor type-1): > 10 µM
IC50 [10]: > 10 µM
inhibition [11]: 50%
inhibition (Tubulin (Homo sapiens) [12]): 96%
inhibition (Tubulin (Homo sapiens) [13]): Active
IC50 [14]: > 10 µM
IC50 (Focal adhesion kinase 1): > 10 µM
IC50 [16]: > 10 µM
IC50 [17]: > 10 µM
IC50 (Activin receptor type-2A): > 10 µM
half-life [18]: 13.8 h
IC50 [20]: > 10 µM
IC50 [21]: > 10 µM
IC50 [22]: > 10 µM
inhibition [23]: 94%
IC50 [24]: > 10 µM
IC50 [26]: > 10 µM
inhibition (Tubulin (Homo sapiens) [28]): Active
IC50 [29]: > 10 µM
Cmax [31]: 1330 ng/mL
Compound: COc1ccc(/C=C\c2cc(OC)c(OC)c(OC)c2)cc1NC(=O)CCC(=O)N[C@@H](CCCNC(=N)N)C(=O)O
Activity (PC-3 [1]): 0.16%
Activity (PC-3 [2]): Active
Activity (PC-3 [3]): 93.57%
inhibition (PC-3 [4]): Dose-Dependent Effect
Activity (VCaP): Active
Activity (PC-3 [8]): 1.95%
Activity (PC-3 [9]): 8.96%
Activity [15]: Non-Toxic
Activity (PC-3 [19]): Active
Activity (CWR22R): Active
Activity (PC-3 [25]): Active
Activity [27]: Non-Toxic
Activity (PC-3 [30]): 14.02%
Activity (PC-3 [32]): 0.064%
